This note sets out measurements from patent US20260250250A1, “3-(SULPHONYL OR SULFONIMIDOYL)PROP-2-EN-1-YL]-2-OXO-1,2-DIHYDROPYRIDINE-3-CARBOXAMIDE DERIVATIVES” (Flinder Therapeutics B.V., priority 2022, published 2026).

Each structure is given as a SMILES string. Bounds are passed on as bounds.

In one assay the test system is NF-κB signaling pathway. As to the kind of experiment: Cell-based dual luciferase NF-κB reporter assay (HEK293 cells, TNF stimulated). The note with it: Homo sapiens, HEK293. Put shortly:
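HEK293 cells transfected with Firefly luciferase and NF-κB-response-element NanoLuc plasmids; compounds at 100–0.005 µM in 1% DMSO. Cells stimulated with 2.5 ng/mL TNF 30 min after compound addition. Firefly and NanoLuc activities read after 6 h by Nano-Glo dual-luciferase detection.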

Assay [1] deals with T1, human E3 ubiquitin-protein ligase RNF31 (HOIP) (Homo sapiens, UniProt Q96EP0).
T1 sequence (Q96EP0 695-1072 limits assumed): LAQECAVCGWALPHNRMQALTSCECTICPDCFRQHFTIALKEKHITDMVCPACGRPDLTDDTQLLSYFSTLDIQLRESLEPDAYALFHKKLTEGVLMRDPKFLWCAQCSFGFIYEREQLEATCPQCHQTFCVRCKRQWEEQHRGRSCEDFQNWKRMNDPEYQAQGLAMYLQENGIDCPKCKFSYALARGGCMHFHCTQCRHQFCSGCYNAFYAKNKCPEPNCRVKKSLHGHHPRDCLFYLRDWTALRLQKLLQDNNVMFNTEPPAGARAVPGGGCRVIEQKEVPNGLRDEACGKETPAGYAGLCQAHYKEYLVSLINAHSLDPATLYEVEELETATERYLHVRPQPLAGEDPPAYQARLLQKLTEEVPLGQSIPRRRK
As to the kind of experiment: Cell-free HTRF-based HOIP inhibition assay. It counts as biochemical. Put shortly: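 Recombinant human HOIP fragment (E. coli) preincubated with compounds (100-0.005 μM, 1% DMSO) and E1 for 1 h at 25° C. E2 and substrates then added; reaction 2.5 h at 25° C. HTRF read-out, excitation 337 nm, emissions 665/620 nm.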

For assay [2], the system named is bladder carcinoma RT4 cell line. Nature of the assay: TNF-α-induced cytotoxicity assay (CellTiter-Glo viability). It counts as cell-based. As to conditions: Homo sapiens, RT-4, 72 h. In short, it runs like this:
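RT4 bladder carcinoma cells, 1000 per well, stimulated with 1.25 ng/mL TNFα together with compound for 72 h at 37° C., 5% CO2. Viability read by CellTiter-Glo luminescence, proportional to cellular ATP, as a measure of HOIP-dependent cytotoxicity.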

For `O=C(NC/C=C/S(=O)(=O)c1ccccc1)c1cc2c([nH]c1=O)CCN(C(=O)OC1CCC1)C2` [Example 70, cyclobutyl 3-{[(2E)-3-(benzenesulfonyl)prop-2-en-1-yl]carbamoyl}-2-oxo-1,2,5,6,7,8-hexahydro-1,6-naphthyridine-6-carboxylate], the half-inhibitory concentration (IC50) in the assay with NF-κB signaling pathway was at most 1000 nM; in assay [1] it was at most 100 nM; in assay [2] it was at most 1000 nM.
Consider `N#Cc1ccc(S(=N)(=O)/C=C/CNC(=O)c2cc3c([nH]c2=O)CCCC3)cc1` (stereo not drawn) [Example 136, N-[(2E)-3-[(4-cyanophenyl)(imino)oxo-λ^6-sulfanyl]prop-2-en-1-yl]-2-oxo-1,2,5,6,7,8-hexahydroquinoline-3-carboxamide], for which the figures for the 50% inhibitory concentration (IC50) (with NF-κB signaling pathway; in assay [1]; in assay [2]) were at most 1000 nM, at most 100 nM and at most 10000 nM, respectively.
